The record followed here is US9663526B2, “Aminopyrimidinyl compounds” (Pfizer Inc., priority 2014, dated 2017).

Structures are written as SMILES. Like-named read-outs stand apart in the source and are kept apart here.

Test [1] concerns the target recombinant human kinase domain of JAK1 (Homo sapiens (Human), UniProt P23458). Briefly: JAK Caliper enzyme assay at 1 mM ATP (JAK1).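 Note: microfluidic mobility-shift readout of synthetic fluorescent peptide phosphorylation, percent product converted from peak height, inhibition relative to DMSO-only wells as uninhibited baseline, room temperature incubation.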 Format: biochemical.
The target in test [2] is recombinant human kinase domain of JAK3 (Homo sapiens (Human), UniProt P52333). As to the kind of experiment: JAK Caliper enzyme assay at 1 mM ATP (JAK3).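 Note: microfluidic mobility-shift readout of synthetic peptide phosphorylation, percent product converted from peak heights, normalized to DMSO-only wells as uninhibited baseline, room temperature incubation.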 Format: biochemical. Particulars: 1 mM ATP; read-out: IC50 (nM) JAK3.
Chain of recombinant human kinase domain of JAK3 (P52333 822-1111): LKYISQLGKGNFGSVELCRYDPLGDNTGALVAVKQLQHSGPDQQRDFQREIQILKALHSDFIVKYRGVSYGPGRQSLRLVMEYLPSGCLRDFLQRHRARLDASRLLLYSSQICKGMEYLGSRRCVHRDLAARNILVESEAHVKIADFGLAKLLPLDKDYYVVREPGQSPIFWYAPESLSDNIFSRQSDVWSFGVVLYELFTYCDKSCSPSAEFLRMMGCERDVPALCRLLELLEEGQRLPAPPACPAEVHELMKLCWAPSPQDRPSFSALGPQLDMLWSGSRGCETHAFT
For test [3], the system named is interferon alpha signalling (TYK2 and JAK1), STAT3 phosphorylation. Briefly: Human whole blood INFα induced STAT3 phosphorylation assay.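 Note: flow cytometry with anti-pSTAT3 staining, signal as percent-positive × mean fluorescence, baseline from unstimulated wells, 11-point dilution series, IC50 as inhibition of pSTAT3.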 Particulars: compound 60 minutes at 37° C., IFNα 5000 U/ml for 15 minutes, pSTAT3 in lymphocyte population by flow cytometry, read-out: HWB IFN alpha IC50. Format: cell-based.
Test [4] concerns the target recombinant human kinase domain of JAK2 (Homo sapiens (Human), UniProt O60674). As to the kind of experiment: JAK Caliper enzyme assay at 1 mM ATP (JAK2).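 Note: microfluidic mobility-shift read-out of fluorescent synthetic peptide phosphorylation, percent product converted from peak heights, room temperature, DMSO-only wells as uninhibited baseline, inhibition curve fit.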 Format: biochemical.
Test [5] concerns the target recombinant human kinase domain of TYK2 (Homo sapiens (Human), UniProt P29597). Briefly: JAK Caliper enzyme assay at 1 mM ATP (TYK2).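 Note: microfluidic mobility-shift readout of synthetic peptide phosphorylation by TYK2, tuned to 20–30% conversion at room temperature, reaction stopped with EDTA, DMSO-only wells as uninhibited baseline.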 Format: biochemical. The conditions noted are these: 1 mM ATP; read-out: IC50 (nM) TYK2.
[6] abbreviates: 1 mM ATP, read-out: IC50 (nM) JAK1.

One may read the IC50 as the concentration that gives 50% inhibition.

Chain of recombinant human kinase domain of JAK1 (P23458 875-1153): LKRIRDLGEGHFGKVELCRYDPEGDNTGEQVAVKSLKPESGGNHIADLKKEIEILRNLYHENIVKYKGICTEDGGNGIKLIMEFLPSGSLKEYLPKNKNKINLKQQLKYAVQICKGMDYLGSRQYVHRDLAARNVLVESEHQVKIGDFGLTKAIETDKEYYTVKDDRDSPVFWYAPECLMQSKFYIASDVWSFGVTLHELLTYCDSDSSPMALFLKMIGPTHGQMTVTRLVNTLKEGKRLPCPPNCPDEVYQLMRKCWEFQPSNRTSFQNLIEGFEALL
Chain of recombinant human kinase domain of TYK2 (P29597 897-1176): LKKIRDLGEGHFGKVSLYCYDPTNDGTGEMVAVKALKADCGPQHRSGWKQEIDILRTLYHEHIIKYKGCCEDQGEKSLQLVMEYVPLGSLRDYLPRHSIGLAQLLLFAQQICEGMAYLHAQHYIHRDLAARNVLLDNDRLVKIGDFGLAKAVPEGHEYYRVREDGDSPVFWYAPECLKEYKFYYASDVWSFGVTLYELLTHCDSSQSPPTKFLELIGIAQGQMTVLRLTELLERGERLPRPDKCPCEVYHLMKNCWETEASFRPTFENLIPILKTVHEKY
Chain of recombinant human kinase domain of JAK2 (O60674 849-1124): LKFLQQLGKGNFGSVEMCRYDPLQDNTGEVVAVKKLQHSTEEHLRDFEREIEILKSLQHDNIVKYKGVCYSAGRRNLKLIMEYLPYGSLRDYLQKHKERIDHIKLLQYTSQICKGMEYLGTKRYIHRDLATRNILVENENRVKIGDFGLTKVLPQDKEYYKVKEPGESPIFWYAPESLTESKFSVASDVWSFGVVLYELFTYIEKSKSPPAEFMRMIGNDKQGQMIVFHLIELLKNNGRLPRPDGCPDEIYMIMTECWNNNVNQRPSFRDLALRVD

Consider `CC(CC#N)N1[C@@H]2CC[C@H]1CN(c1ccnc(Nc3cnn(C)c3)n1)C2` (stereo partly drawn) [Example 80, 3-[(1R,5S)-3-{2-[(1-methyl-1H-pyrazol-4-yl)amino]pyrimidin-4-yl}-3,8-diazabicyclo[3.2.1 l]oct-8-yl]butanenitrile], for which the IC50 in test [1] (setting [6]) is 190 nM; in test [2], above 10000 nM; in test [3], 0.112 µM; in test [4], 436 nM; in test [5] it was 79 nM.
For `CC(C)(C#N)c1ccc(Nc2nccc(N3C[C@H]4CC[C@@H](C3)N4C(=O)[C@@H]3CC3(F)F)n2)cn1` [Example 26, 2-[5-({4-[(1R,5S)-8-{[(1S)-2,2-difluorocyclopropyl]carbonyl}-3,8-diazabicyclo[3.2.1]oct-3-yl]pyrimidin-2-yl}amino)pyridin-2-yl]-2-methylpropanenitrile], in that order: 60 nM, above 10000 nM, 0.247 µM, 192 nM and 25 nM.
For `CCNC(=O)c1ccc(Nc2nccc(N3CC4CC(C3)N4C(=O)C(C)(F)F)n2)cc1` [Example 114, 4-({4-[6-(2,2-difluoropropanoyl)-3,6-diazabicyclo[3.1.1]hept-3-yl]pyrimidin-2-yl}amino)-N-ethylbenzamide], in that order: 955 nM, above 10000 nM, 0.166 µM, 1860 nM and 62 nM.
For `CNC(=O)c1ncc(Nc2nccc(N3C[C@H]4CC[C@@H](C3)N4C(=O)[C@@H]3C[C@H]3C#N)n2)cc1Cl` [Example 31, 3-chloro-5-({4-[(1R,5S)-8-{[(1R,2R)-2-cyanocyclopropyl]carbonyl}-3,8-diazabicyclo[3.2.1]oct-3-yl]pyrimidin-2-yl}amino)-N-methylpyridine-2-carboxamide], in that order: 78 nM, above 10000 nM, 0.284 µM, 401 nM and 32 nM.
Consider `CNC(=O)c1ncc(Nc2nccc(N3C[C@H]4CC[C@@H](C3)N4C(=O)[C@@H]3C[C@H]3C#N)n2)cc1F` [Example 27, 5-({4-[(1R,5S)-8-{[(1R,2R)-2-cyanocyclopropyl]carbonyl}-3,8-diazabicyclo[3.2.1]oct-3-yl]pyrimidin-2-yl}amino)-3-fluoro-N-methylpyridine-2-carboxamide], for which the concentration for half-maximal inhibition (IC50) in test [1] (setting [6]) was 78 nM; in test [2] it was above 10000 nM; in test [3] it was 0.139 µM; in test [4] it was 640 nM; in test [5], 61 nM.
For `Cn1cc(Nc2nccc(N3C[C@H]4CC[C@@H](C3)N4C3CN(S(C)(=O)=O)C3)n2)cn1` [Example 60, N-(1-methyl-1H-pyrazol-4-yl)-4-{(1R,5S)-8-[1-(methylsulfonyl)azetidin-3-yl]-3,8-diazabicyclo[3.2.1]oct-3-yl}pyrimidin-2-amine], in that order: 36 nM, above 10000 nM, 0.103 µM, 159 nM and 70 nM.
On the same counts, the results for `Cn1cc(Nc2nccc(N3C[C@H]4CC[C@@H](C3)N4C3(CC#N)COC3)n2)cn1` [Example 84, {3-[(1R,5S)-3-{2-[(1-methyl-1H-pyrazol-4-yl)amino]pyrimidin-4-yl}-3,8-diazabicyclo[3.2.1]oct-8-yl]oxetan-3-yl}acetonitrile] are 141 nM, above 10000 nM, 0.156 µM, 155 nM and 62 nM.
On the same counts, the results for `CCNC(=O)N1[C@@H]2CC[C@H]1CN(c1ccnc(Nc3cnc(C(=O)NC)c(F)c3)n1)C2` [Example 87, (1R,5S)—N-ethyl-3-(2-{[5-fluoro-6-(methylcarbamoyl)pyridin-3-yl]amino}pyrimidin-4-yl)-3,8-diazabicyclo[3.2.1]octane-8-carboxamide] are 337 nM, above 10000 nM, 0.582 µM, 1790 nM and 93 nM.
In the case of `CNC(=O)c1ncc(Nc2nccc(N3C[C@H]4CC[C@@H](C3)N4Cc3ccno3)n2)cc1C` [Example 53, N,3-dimethyl-5-({4-[(1R,5S)-8-(1,2-oxazol-5-ylmethyl)-3,8-diazabicyclo[3.2.1]oct-3-yl]pyrimidin-2-yl}amino)pyridine-2-carboxamide], the IC50 is 226 nM in test [1] (setting [6]); above 10000 nM in test [2]; 0.287 µM in test [3]; 375 nM in test [4]; 24 nM in test [5].
On the same counts, the results for `Cn1cc(Nc2nccc(N3C[C@H]4CC[C@@H](C3)N4C3CC(C#N)C3)n2)cn1` (stereo partly drawn) [Example 59, 3-[(1R,5S)-3-{2-[(1-methyl-1H-pyrazol-4-yl)amino]pyrimidin-4-yl}-3,8-diazabicyclo[3.2.1]oct-8-yl]cyclobutanecarbonitrile] are 78 nM, 8800 nM, 0.084 µM, 236 nM and 62 nM.
For `Cn1cc(Nc2nccc(N3C[C@H]4CC[C@@H](C3)N4C[C@@H]3CC3(F)F)n2)cn1` [Example 64, 4-[(1R,5S)-8-{[(1S)-2,2-difluorocyclopropyl]methyl}-3,8-diazabicyclo[3.2.1]oct-3-yl]-N-(1-methyl-1H-pyrazol-4-yl)pyrimidin-2-amine], in that order: 95 nM, above 10000 nM, 0.071 µM, 320 nM and 41 nM.
On the same counts, the results for `Cn1cc(Nc2nccc(N3C[C@H]4CC[C@@H](C3)N4C(=O)C3(F)CC3)n2)cn1` [Example 46, (1-fluorocyclopropyl)[(1R,5S)-3-{2-[(1-methyl-1H-pyrazol-4-yl)amino]pyrimidin-4-yl}-3,8-diazabicyclo[3.2.1]oct-8-yl]methanone] are 173 nM, 4160 nM, 0.209 µM, 526 nM and 84 nM.
`CNC(=O)c1ncc(Nc2nccc(N3C[C@H]4CC[C@@H](C3)N4C(=O)[C@@H]3CC3(F)F)n2)cc1Cl` [Example 10, 3-chloro-5-({4-[(1R,5S)-8-{[(1S)-2,2-difluorocyclopropyl]carbonyl}-3,8-diazabicyclo[3.2.1]oct-3-yl]pyrimidin-2-yl}amino)-N-methylpyridine-2-carboxamide]: the IC50 in test [1] (setting [6]) was 171 nM; in test [2] it was above 10000 nM; in test [3] it was 0.439 µM; in test [4] it was 367 nM; in test [5] it was 22 nM.
For `CNC(=O)c1ncc(Nc2nccc(N3C[C@H]4CC[C@@H](C3)N4C(=O)[C@@H]3CC3(F)F)n2)cc1F` [Example 29, 5-({4-[(1R,5S)-8-{[(1S)-2,2-difluorocyclopropyl]carbonyl}-3,8-diazabicyclo[3.2.1]oct-3-yl]pyrimidin-2-yl}amino)-3-fluoro-N-methylpyridine-2-carboxamide], the IC50 in test [1] is 131 nM; in test [2] it was above 10000 nM; in test [3], 0.118 µM; in test [4] it was 487 nM; in test [5] it was 31 nM.
Turning to `CNC(=O)c1ncc(Nc2nccc(N3C[C@H]4CC[C@@H](C3)N4C(=O)NCC(F)(F)F)n2)cc1C` [Example 89], the IC50 in test [1] (setting [6]) came to 10 nM; in test [2], 4430 nM; in test [3], 0.118 µM; in test [4] it was 65 nM; in test [5] it was 9 nM.
